Data from US10688061B2, “Formation of delivery agents targeted to degraded elastic fibers” (priority 2012, dated 2020).

System: Rat aortic vascular smooth muscle cells
Conditions: positive control (FIG. 22)
Description: Cells were seeded at 10,000 cells/cm^2. At 70% confluency, cells were incubated with nanoparticles for 4 hours following which cell viability was determined using a LIVE/DEAD Cell Viability assay (Molecular Probes, Grand Island, N.Y.). Cells fluorescing green were considered alive while cells fluorescing red were considered dead. Additionally, proliferation of cells was estimated using the MTT (3-(4,5-Dimethyl-2-thiazolyl)-2,5-diphenyl-2H-tetrazolium bromide) assay. Briefly, 5 mg of MTT (Sigma Aldrich, St. Louis, Mo.) was dissolved in 10 ml of serum-free media and added to cells. After 4 hours, media was carefully aspirated and the insoluble formazan dye was collected with dimethyl sulfoxide (DMSO) (Sigma Aldrich, St, Louis, Mo.). Absorbance was read at 560 nm and normalized to control (no treatment) readings.

## CCO [70% ethanol, ethanol]
  Cell death: > 95%
